The results in this text go back to patent publication US10597388B2, “Pyridazinone herbicides” (FMC CORPORATION, priority 2014, dated 2020).

Common to all, as to format: in vivo
Assay [1] has as its system barnyardgrass (Echinochloa crus-galli). Description: Test A greenhouse herbicide test, pre- and postemergence. The method, boiled down:
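Seeds sown in loam–sand blend got a preemergence directed soil spray of compound in non-phytotoxic solvent with surfactant. Postemergence treatment was given at 2–10 cm, one- to two-leaf stage. After ~10 d in greenhouse, injury was rated visually vs untreated controls, 0 (no effect) to 100 (complete control).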

Assay [2] deals with blackgrass (Alopecurus myosuroides). Description: Test A greenhouse herbicide test, postemergence. As to conditions: for Plant response rating, Blackgrass: 125 g ai/ha, 0 to 100 scale where 0 is no effect and 100 is complete control; for Blackgrass plant response rating: 0 to 100 scale, 0 is no effect, 100 is complete control. Summed up: (§1)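 Greenhouse postemergence test: formulated chemicals sprayed on one- to two-leaf plants (2 to 10 cm), grown in loam soil blended with sand. Injury assessed visually about 10 d later against untreated controls, scored 0 (no effect) to 100 (complete control).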

In assay [3] the test system is galium (catchweed bedstraw, Galium aparine). Description: Test A greenhouse herbicide test, postemergence. As to conditions: for Plant response rating, Galium: 125 g ai/ha, 0 to 100 scale where 0 is no effect and 100 is complete control; for Galium plant response rating: 0 to 100 scale, 0 is no effect, 100 is complete control. Summed up: as §1
The subject of assay [4] is barnyardgrass (Echinochloa crus-galli). Description: Test B flooded paddy test. As to conditions: 250 g ai/ha, Flood; visual rating on scale of 0 to 100 where 0 is no effect and 100 is complete control; 13 to 15 d after treatment. Summed up:
(§2)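 Plants at the 2-leaf stage were flooded to 3 cm above soil, and test compounds were applied directly into the paddy water, which was held at that depth throughout. After 13 to 15 d in a greenhouse, injury was rated visually against untreated controls on a 0–100 scale (0 no effect, 100 complete control).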

Assay [5] concerns ducksalad (Heteranthera limosa). Description: Test B flooded paddy test. The conditions noted are these: 250 g ai/ha, Flood; visual rating on scale of 0 to 100 where 0 is no effect and 100 is complete control; 13 to 15 d after treatment. Summed up: as §2
A further assay relates to rice (Oryza sativa). Description: Test B flooded paddy test. As to conditions: 250 g ai/ha, Flood; visual rating on scale of 0 to 100 where 0 is no effect and 100 is complete control; 13 to 15 d after treatment. The method, boiled down:
as §2

For assay [6], the system named is sedge, umbrella (small-flower umbrella sedge, Cyperus difformis). Description: Test B flooded paddy test. As to conditions: 250 g ai/ha, Flood; visual rating on scale of 0 to 100 where 0 is no effect and 100 is complete control; 13 to 15 d after treatment. Summed up: as §2
Assay [7] relates to chickweed (common chickweed, Stellaria media). Description: Test C greenhouse herbicide test, postemergence. Summed up:
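Seedlings are raised in pots of peat moss–vermiculite medium with starter nutrients, then receive postemergence test chemical at the 1- to 4-leaf stage. They are kept in the greenhouse 13 to 15 d and scored visually versus controls, 0 meaning no effect and 100 complete control.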

[8] abbreviates: Postemergence, 125 g ai/ha, 0 to 100 scale where 0 is no effect and 100 is complete control.
Where [9] appears, read: Postemergence, 500 g ai/ha, 0 to 100 scale, 0 is no effect, 100 is complete control.
Where [10] appears, read: Preemergence, 125 g ai/ha, 0 to 100 scale where 0 is no effect and 100 is complete control.
Setting [11] is: Preemergence, 500 g ai/ha, 0 to 100 scale, 0 no effect, 100 complete control.
Where [12] appears, read: Postemergence, 31 g ai/ha, 0 to 100 scale (0 no effect, 100 complete control).
Where [13] appears, read: Postemergence, 125 g ai/ha, scale 0 to 100, 0 is no effect, 100 is complete control.
Setting [14] is: Postemergence, 250 g ai/ha, scale 0 to 100, 0 no effect, 100 complete control, 13 to 15 d.
Where [15] appears, read: postemergence, 62 g ai/ha, scale 0 to 100, 0 no effect, 100 complete control.

As to `Cc1ccc2ccccc2c1-c1c(O)cnn(C)c1=O` [Compound 56], the “Plant response rating, Barnyardgrass” value is recorded as 10 in assay [1] (setting [8]), 50 in assay [1] (setting [11]) and 0 in assay [4]. In addition, the entries for the “Barnyardgrass plant response rating” value in assay [1] (setting [9]) and in assay [1] (setting [10]) were 60 and 10, respectively. For the same molecule, in assay [2], the “Plant response rating, Blackgrass” value is listed as 30. For the same molecule, the “Blackgrass plant response rating” value in assay [2] (500 g ai/ha) is 50. Besides, in assay [3], the “Plant response rating, Galium” value worked out at 90. Moreover, the “Galium plant response rating” value in assay [3] (500 g ai/ha) is 100. Further, the “Plant response rating, Ducksalad” value in assay [5] is on record as 0. Besides, the “Plant response rating, Rice” value with rice (Oryza sativa) turned out to be 0. Further, the “Plant response rating, Sedge, Umbrella” value in assay [6] stood at 0. The entries for the “Chickweed plant response rating” value in assay [7] (setting [12]) and in assay [7] (setting [15]) were 5 and 10, respectively. Moreover, the “Plant response rating, Chickweed” value worked out at 55 in assay [7] (setting [13]) and 70 in assay [7] (setting [14]).

In the case of `Cc1ccc2ccccc2c1-c1c(O)c(C)nn(C)c1=O` [Compound 59], the “Plant response rating, Barnyardgrass” value in assay [1] (setting [8]) was 80; in assay [1] (setting [11]), 100; in assay [4], 0. Moreover, the “Barnyardgrass plant response rating” value is 90 in assay [1] (setting [9]) and 80 in assay [1] (setting [10]). The “Plant response rating, Blackgrass” value in assay [2] worked out at 90. The “Blackgrass plant response rating” value in assay [2] (500 g ai/ha) turned out to be 100. Further, the “Plant response rating, Galium” value in assay [3] came out at 100. Further, in assay [3] (500 g ai/ha), the “Galium plant response rating” value stood at 100. For the same molecule, the “Plant response rating, Ducksalad” value in assay [5] came out at 0. Moreover, in the assay on rice (Oryza sativa), the “Plant response rating, Rice” value came out at 0. For the same molecule, the “Plant response rating, Sedge, Umbrella” value in assay [6] is 0. For the same molecule, the “Chickweed plant response rating” value in assay [7] (setting [12]) was 90; in assay [7] (setting [15]), 98. Further, the “Plant response rating, Chickweed” value in assay [7] (setting [13]) and in assay [7] (setting [14]) was 98 each time.

Regarding `Cc1ccc2ccc(C)c(-c3c(O)c(C)nn(C)c3=O)c2c1` [Compound 60], the “Barnyardgrass plant response rating” value in assay [1] (Postemergence, 1000 g ai/ha, 0 to 100 scale, 0 is no effect, 100 is complete control) was 90. Besides, the “Plant response rating, Barnyardgrass” value in assay [1] (Preemergence, 1000 g ai/ha, 0 to 100 scale, 0 no effect, 100 complete control) is on record as 80; in assay [4], 35. Besides, the “Blackgrass plant response rating” value in assay [2] (1000 g ai/ha) was determined as 90. Also, the “Galium plant response rating” value in assay [3] (1000 g ai/ha) is listed as 100. Also, the “Plant response rating, Ducksalad” value in assay [5] amounted to 20. Moreover, the “Plant response rating, Rice” value in the assay with rice (Oryza sativa) was 35. Also, the “Plant response rating, Sedge, Umbrella” value in assay [6] stood at 30. Besides, the “Chickweed plant response rating” value was 90 in assay [7] (setting [12]) and 95 in assay [7] (setting [15]). The figures for the “Plant response rating, Chickweed” value in assay [7] (setting [13]) and in assay [7] (setting [14]) were 95 and 98, respectively.

As for `Cc1nn(C)c(=O)c(-c2c(C)sc3ccccc23)c1O` [Compound 65], the “Plant response rating, Barnyardgrass” value came out at 20 in assay [1] (setting [8]), 90 in assay [1] (setting [11]) and 0 in assay [4]. In addition, the results for the “Barnyardgrass plant response rating” value in assay [1] (setting [9]) and in assay [1] (setting [10]) were 90 and 60, respectively. Moreover, the “Plant response rating, Blackgrass” value in assay [2] amounted to 20. Moreover, the “Blackgrass plant response rating” value in assay [2] (500 g ai/ha) amounted to 70. Also, the “Plant response rating, Galium” value in assay [3] was 90. Moreover, in assay [3] (500 g ai/ha), the “Galium plant response rating” value was found to be 100. In addition, the “Plant response rating, Ducksalad” value in assay [5] is listed as 0. The “Plant response rating, Rice” value in the assay on rice (Oryza sativa) turned out to be 0. Further, the “Plant response rating, Sedge, Umbrella” value in assay [6] worked out at 0. The “Chickweed plant response rating” value in assay [7] (setting [12]) came out at 55; in assay [7] (setting [15]), 90. The “Plant response rating, Chickweed” value in assay [7] (setting [13]) and in assay [7] (setting [14]) was 90 throughout.

With `Cc1cc(C)c2sc(C)c(-c3c(OC(=O)OC(C)C)c(C)nn(C)c3=O)c2c1` [Compound 67], the “Plant response rating, Barnyardgrass” value came out at 20 in assay [1] (setting [8]), 90 in assay [1] (setting [11]) and 0 in assay [4]. For the same molecule, the entries for the “Barnyardgrass plant response rating” value in assay [1] (setting [9]) and in assay [1] (setting [10]) were 70 and 30, respectively. Besides, the “Plant response rating, Blackgrass” value in assay [2] amounted to 70. In addition, in assay [2] (500 g ai/ha), the “Blackgrass plant response rating” value was found to be 80. Also, the “Plant response rating, Galium” value in assay [3] came to 80. The “Galium plant response rating” value in assay [3] (500 g ai/ha) came out at 90. In assay [5], the “Plant response rating, Ducksalad” value stood at 0. Further, in the assay on rice (Oryza sativa), the “Plant response rating, Rice” value stood at 0. For the same molecule, in assay [6], the “Plant response rating, Sedge, Umbrella” value worked out at 0. The “Chickweed plant response rating” value in assay [7] (setting [12]) worked out at 90; in assay [7] (setting [15]), 95. For the same molecule, the “Plant response rating, Chickweed” value in assay [7] (setting [13]) and in assay [7] (setting [14]) was 95 in each case.

Turning to `CCOC(=O)Oc1c(C)nn(C)c(=O)c1-c1c(C)ccc2ccccc12` [Compound 73], the “Plant response rating, Barnyardgrass” value in assay [1] (setting [8]) is 40; in assay [1] (setting [11]) it was 100; in assay [4], 0. The “Barnyardgrass plant response rating” value in assay [1] (setting [9]) was 90; in assay [1] (setting [10]), 40. For the same molecule, the “Plant response rating, Blackgrass” value in assay [2] worked out at 90. In assay [2] (500 g ai/ha), the “Blackgrass plant response rating” value stood at 90. In assay [3], the “Plant response rating, Galium” value is recorded as 100. Moreover, the “Galium plant response rating” value in assay [3] (500 g ai/ha) was determined as 100. The “Plant response rating, Ducksalad” value in assay [5] is given as 0. Also, the “Plant response rating, Rice” value in the assay with rice (Oryza sativa) came out at 0. Besides, the “Plant response rating, Sedge, Umbrella” value in assay [6] is 0. Further, the “Chickweed plant response rating” value in assay [7] (setting [12]) and in assay [7] (setting [15]) was 90 each time. Besides, the “Plant response rating, Chickweed” value in assay [7] (setting [13]) and in assay [7] (setting [14]) was 95 each time.

`COC(=O)Oc1c(C)nn(C)c(=O)c1-c1c(C)sc2c(C)cc(C)cc12` [Compound 81]: the “Plant response rating, Barnyardgrass” value in assay [1] (setting [8]) worked out at 30; in assay [1] (setting [11]), 100; in assay [4], 60. Moreover, the “Barnyardgrass plant response rating” value in assay [1] (setting [9]) and in assay [1] (setting [10]) was 90 throughout. Further, in assay [2], the “Plant response rating, Blackgrass” value was 90. Moreover, the “Blackgrass plant response rating” value in assay [2] (500 g ai/ha) is listed as 90. For the same molecule, the “Plant response rating, Galium” value in assay [3] was found to be 100. For the same molecule, in assay [3] (500 g ai/ha), the “Galium plant response rating” value stood at 100. Further, in assay [5], the “Plant response rating, Ducksalad” value is 70. For the same molecule, the “Plant response rating, Rice” value in the assay on rice (Oryza sativa) is given as 60. In addition, the “Plant response rating, Sedge, Umbrella” value in assay [6] came out at 80. Moreover, the “Chickweed plant response rating” value in assay [7] (setting [12]) and in assay [7] (setting [15]) was 90 each time. Besides, the “Plant response rating, Chickweed” value in assay [7] (setting [13]) and in assay [7] (setting [14]) was 95 throughout.

In the case of `CCOC(=O)Oc1c(C)nn(C)c(=O)c1-c1c(C)sc2ccc(C)cc12` [Compound 82], the “Plant response rating, Barnyardgrass” value turned out to be 30 in assay [1] (setting [8]); 70 in assay [1] (Preemergence, 500 g ai/ha, 0 to 100 scale where 0 is no effect and 100 is complete control); 0 in assay [4]. Further, the “Barnyardgrass plant response rating” value is 50 in assay [1] (setting [9]) and 40 in assay [1] (setting [10]). For the same molecule, the “Plant response rating, Blackgrass” value in assay [2] is on record as 70. For the same molecule, the “Blackgrass plant response rating” value in assay [2] (500 g ai/ha) is 70. Besides, the “Plant response rating, Galium” value in assay [3] was determined as 90. In addition, the “Galium plant response rating” value in assay [3] (500 g ai/ha) was 90. For the same molecule, the “Plant response rating, Ducksalad” value in assay [5] came to 0. Also, in the assay on rice (Oryza sativa), the “Plant response rating, Rice” value stood at 0. In assay [6], the “Plant response rating, Sedge, Umbrella” value was determined as 0. The “Chickweed plant response rating” value in assay [7] (setting [12]) and in assay [7] (setting [15]) was 90 each time. Also, the entries for the “Plant response rating, Chickweed” value in assay [7] (setting [13]) and in assay [7] (setting [14]) were 90 and 98, respectively.
